Holding throughout (format): functional
Experiment [1] can be described thus: The compound was evaluated for growth inhibition in NCI-60 tumor cells. Conditions: Homo sapiens.
Experiment [2] can be described thus: The compound was evaluated for toxicity in NCI-60 tumor cells. Conditions: Homo sapiens.
A short description of experiment [3]: The compound was evaluated for total growth inhibition in NCI-60 tumor cells. Conditions: Homo sapiens.
Experiment [4] can be described thus: The compound was evaluated for inhibition of protein biosynthesis.

*1 amine or outer side, *2 acyl side, *3 side chain or, on linkers, in order; H or OH if unused. Where a SMILES comes first, the peptide text is derived from it. Bridges are numbered along the chain shown (N, C = ends). [ ]: non-standard residue; d: D form. The star is where a group is joined. ξ: configuration not given here. X1 = CC[C@H](C)[C@@H](N[*:1])[C@@H](O)CC(=O)O[C@H](C(=O)[C@H](C)C(=O)[*:2])C(C)C; Benzoyl(4-benzoyl) = O=C(c1ccccc1)c1ccc(C(=O)*)cc1; NMeY = CN[C@@H](Cc1ccc(O)cc1)C(=O)O; dNMeL = CN[C@H](CC(C)C)C(=O)O; Ahx = NCCCCCC(=O)O; ξP = O=C(O)C1CCCN1

This is an account of results in ChEMBL document CHEMBL1134730, “Synthesis and biological evaluation of didemnin photoaffinity analogues” (Bioorg Med Chem Lett, 2001).

As to `CC[C@H](C)[C@H]1NC(=O)[C@@H](NC(=O)[C@@H](CC(C)C)N(C)C(=O)CCCCCNC(=O)CCCCCNC(=O)c2ccc(C(=O)c3ccccc3)cc2)[C@@H](C)OC(=O)[C@H](Cc2ccc(OC)cc2)N(C)C(=O)C2CCCN2C(=O)[C@H](CC(C)C)NC(=O)[C@@H](C)C(=O)[C@H](C(C)C)OC(=O)C[C@@H]1O` (stereo partly specified), the GI50 (usually the concentration at which growth is held to half of that of the control) in experiment [1] is 0.017 µM. Also, the LC50 (as a rule, the concentration that kills 50% of the test population) in experiment [2] was 48 µM. Also, the TGI (in general, the concentration giving total growth inhibition) in experiment [3] came out at 5 µM. The IC50 – broadly, the concentration at which inhibition is half-maximal – in experiment [4] was determined as 19 µM.

In experiment [1], `CC[C@H](C)[C@H]1NC(=O)[C@@H](NC(=O)[C@@H](CC(C)C)N(C)C(=O)CCCCCNC(=O)c2ccc(C(=O)c3ccccc3)cc2)[C@@H](C)OC(=O)[C@H](Cc2ccc(OC)cc2)N(C)C(=O)C2CCCN2C(=O)[C@H](CC(C)C)NC(=O)[C@@H](C)C(=O)[C@H](C(C)C)OC(=O)C[C@@H]1O` (stereo partly specified) ({Benzoyl(4-benzoyl)-Ahx}-[dNMeL]T[X1]L[ξP][NMeY](Me); ester 2-C) gave a GI50 of 0.0043 µM. Besides, the LC50 in experiment [2] is 19 µM. The compound also showed a concentration for total growth inhibition (TGI) in experiment [3] of 21 µM. Moreover, half-maximal inhibition in experiment [4] (IC50) required 24 µM.

Compound `CC[C@H](C)[C@H]1NC(=O)[C@@H](NC(=O)[C@@H](CC(C)C)N(C)C(=O)CNC(=O)c2ccc(C(=O)c3ccccc3)cc2)[C@@H](C)OC(=O)[C@H](Cc2ccc(OC)cc2)N(C)C(=O)C2CCCN2C(=O)[C@H](CC(C)C)NC(=O)[C@@H](C)C(=O)[C@H](C(C)C)OC(=O)C[C@@H]1O` (stereo partly specified) ({Benzoyl(4-benzoyl)}-G[dNMeL]T[X1]L[ξP][NMeY](Me); ester 3-C) yielded a GI50 in experiment [1] of 0.013 µM. For the same compound, the LC50 in experiment [2] came out at 23 µM. Besides, the TGI in experiment [3] stood at 2 µM. Further, in experiment [4], the IC50 is 4.5 µM.

Consider `CC[C@H](C)[C@H]1NC(=O)[C@@H](NC(=O)[C@@H](CC(C)C)N(C)C(=O)c2ccc(C(=O)c3ccccc3)cc2)[C@@H](C)OC(=O)[C@H](Cc2ccc(OC)cc2)N(C)C(=O)C2CCCN2C(=O)[C@H](CC(C)C)NC(=O)[C@@H](C)C(=O)[C@H](C(C)C)OC(=O)C[C@@H]1O` (stereo partly specified) ({Benzoyl(4-benzoyl)}-[dNMeL]T[X1]L[ξP][NMeY](Me); ester 2-C), for which, in experiment [1], halving of growth (GI50) required 0.003 µM. Moreover, the LC50 in experiment [2] was found to be 15 µM. In experiment [3], this compound displayed a TGI of 0.35 µM. In experiment [4], this compound showed an IC50 of 4 µM.
